Measured values reported in ChEMBL document CHEMBL3880388, “Dihydropyrimidin-2(1H)-ones and dihydropyrimidin-2(1H)-thiones as inhibitors of sodium iodide symporter” (2014).

Experiments:
[1] = molecular target: T1, Sodium/iodide cotransporter (Rattus norvegicus, UniProt Q63008); assay: Inhibition of sodium iodide symporter in rat FRTL5 cells assessed as inhibition of iodide uptake using Na125I after 60 mins by scintillation counting method; format: cell-based, FRTL-5
T1 sequence (Q63008 whole entry): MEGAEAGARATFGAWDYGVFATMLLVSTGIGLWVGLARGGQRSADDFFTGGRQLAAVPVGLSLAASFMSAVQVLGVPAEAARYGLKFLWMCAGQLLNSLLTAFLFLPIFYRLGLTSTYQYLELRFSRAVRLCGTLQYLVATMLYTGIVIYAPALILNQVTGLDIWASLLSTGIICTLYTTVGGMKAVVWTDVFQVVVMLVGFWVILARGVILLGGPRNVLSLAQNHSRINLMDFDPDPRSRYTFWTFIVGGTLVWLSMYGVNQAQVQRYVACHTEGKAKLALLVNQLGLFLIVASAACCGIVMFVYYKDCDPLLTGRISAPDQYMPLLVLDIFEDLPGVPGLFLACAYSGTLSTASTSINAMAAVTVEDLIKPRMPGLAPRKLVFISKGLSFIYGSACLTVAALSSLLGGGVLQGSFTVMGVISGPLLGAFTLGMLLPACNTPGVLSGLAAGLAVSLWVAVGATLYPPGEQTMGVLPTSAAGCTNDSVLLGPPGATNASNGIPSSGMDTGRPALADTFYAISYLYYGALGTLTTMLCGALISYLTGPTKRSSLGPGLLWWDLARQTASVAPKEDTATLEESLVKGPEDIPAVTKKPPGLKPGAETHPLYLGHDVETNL

[2] = Cytotoxicity against rat FRTL5 cells assessed as effect on cell growth at 1 uM measured at 24 hrs by MTT assay; format: cell-based; conditions: frtl-5, 24 h
[3] = molecular target: T1, Sodium/iodide cotransporter; assay: Inhibition of sodium iodide symporter in rat FRTL5 cells assessed as inhibition of iodide uptake using NaI/Na125I after 45 mins by scintillation counting method; format: cell-based, FRTL-5

Which IC50 [1] does the source give for `COc1ccc(COC(=O)C2=C(C)NC(=O)NC2c2ccccc2)cc1` (centres undefined) here?
The IC50 was 400 nM.

Which Activity [2] does the source give for `CCCCCC1=C(C(=O)OCc2ccc(OC)cc2)C(c2ccccc2)NC(=O)N1` (centres undefined) here?
The Activity was “Non-Toxic”.

For `CC1=C(C(=O)NCc2ccc3c(c2)OCO3)C(c2ccccc2)NC(=O)N1` (centres undefined), which Activity [2] is on record?
Its Activity is “Non-Toxic”.

With `CC1=C(C(=O)OCc2ccccc2C)C(c2ccccc2)NC(=O)N1` (centres undefined) as the molecule, how does the Activity [2] read?
The Activity was “Non-Toxic”.

With `COc1ccc(COC(=O)C2=C(C)NC(=O)NC2c2ccsc2)cc1` (centres undefined) as the molecule, how does the Activity [2] read?
The Activity was “Non-Toxic”.

Which Activity [2] does the source give for `COc1ccc(COC(=O)C2=C(Cc3cccs3)NC(=O)NC2c2ccccc2)cc1` (centres undefined) here?
The Activity was “Non-Toxic”.

For `COc1cccc(COC(=O)C2=C(C)NC(=O)NC2c2ccccc2)c1` (centres undefined), which Activity [2] is on record?
The Activity was “Non-Toxic”.

Which Activity [2] does the source give for `CC1=C(C(=O)OCc2ccccc2Cl)C(c2ccccc2)NC(=O)N1` (centres undefined) here?
The Activity was “Non-Toxic”.

With `COc1ccc(COC(=O)C2=C(C)NC(=O)NC2c2ccoc2)cc1` (centres undefined) as the molecule, how does the Activity [2] read?
The Activity was “Non-Toxic”.

For `CC1=C(C(=O)OCc2ccc3c(c2)OCO3)C(c2ccco2)N(C)C(=O)N1C` (centres undefined), which Activity [2] is on record?
The Activity was “Non-Toxic”.

Which Activity [2] does the source give for `CC1=C(C(=O)OCc2ccc3c(c2)OCO3)C(c2ccoc2)NC(=O)N1` (centres undefined) here?
The Activity was “Non-Toxic”.

Which Activity [2] does the source give for `COc1ccc(COC(=O)C2=C(COc3ccccc3)NC(=O)NC2c2ccccc2)cc1` (centres undefined) here?
The Activity was “Non-Toxic”.

For `CC1=C(C(=O)OCc2ccc3c(c2)OCO3)C(c2ccco2)NC(=O)N1C` (centres undefined), which Activity [2] is on record?
The Activity was “Non-Toxic”.

For `COc1ccc(COC(=O)C2=C(C)NC(=O)NC2c2cccc(Cl)c2)cc1` (centres undefined), which Activity [2] is on record?
The Activity was “Non-Toxic”.

Which Activity [2] does the source give for `COc1ccc(COC(=O)C2=C(C)NC(=O)NC2c2ccccc2F)cc1` (centres undefined) here?
Its Activity is “Non-Toxic”.

With `COc1ccc(COC(=O)C2=C(C)N(C)C(=O)N(C)C2c2ccccc2)cc1` (centres undefined) as the molecule, how does the Activity [2] read?
Its Activity is “Non-Toxic”.

With `COc1ccc(COC(=O)C2=C(C)NC(=O)NC2C2CC2)cc1` (centres undefined) as the molecule, how does the Activity [2] read?
Its Activity is “Non-Toxic”.

For `COc1ccc(COC(=O)C2=C(C)NC(=O)NC2c2cccc(F)c2)cc1` (centres undefined), which Activity [2] is on record?
The Activity was “Non-Toxic”.

With `COc1ccc(COC(=O)C2=C(C)N(C)C(=O)N(C)C2c2ccco2)cc1OC` (centres undefined) as the molecule, how does the Activity [2] read?
Its Activity is “Non-Toxic”.

With `CC1=C(C(=O)OCc2ccc(Cl)cc2)C(c2ccccc2)NC(=O)N1` (centres undefined) as the molecule, how does the Activity [2] read?
Its Activity is “Non-Toxic”.

Which Activity [2] does the source give for `CC1=C(C(=O)OCc2ccc(F)cc2)C(c2ccccc2)NC(=O)N1` (centres undefined) here?
The Activity was “Non-Toxic”.

Which IC50 [3] does the source give for `F[B-](F)(F)c1ccc(OCc2ccccc2)cc1` here?
The IC50 was 400 nM.

With `COc1ccc(COC(=O)C2=C(CNC(=O)c3ccccc3)NC(=O)NC2c2ccccc2)cc1` (centres undefined) as the molecule, how does the Activity [2] read?
Its Activity is “Non-Toxic”.

With `COc1ccc(COC(=O)C2=C(C)N(C)C(=O)NC2c2ccco2)cc1` (centres undefined) as the molecule, how does the Activity [2] read?
Its Activity is “Non-Toxic”.

With `COc1ccc(COC(=O)C2=C(C)N(C)C(=O)N(C)C2c2ccco2)cc1` (centres undefined) as the molecule, how does the Activity [2] read?
The Activity was “Non-Toxic”.

Which Activity [2] does the source give for `COc1ccc(COC(=O)C2=C(C)NC(=S)NC2c2ccccc2)cc1` (centres undefined) here?
Its Activity is “Non-Toxic”.

Which Activity [2] does the source give for `COc1ccc(COC(=O)C2=C(C)NC(=O)NC2c2ccc(C)o2)cc1` (centres undefined) here?
The Activity was “Non-Toxic”.

With `CC1=C(C(=O)OCc2ccc3c(c2)OCO3)C(c2ccccc2)NC(=O)N1` (centres undefined) as the molecule, how does the Activity [2] read?
Its Activity is “Non-Toxic”.

Which Activity [2] does the source give for `COc1ccc(COC(=O)C2=C(CC(C)C)NC(=O)NC2c2ccccc2)cc1` (centres undefined) here?
Its Activity is “Non-Toxic”.

Which Activity [2] does the source give for `COc1ccc(COC(=O)C2=C(Cc3ccccc3)NC(=O)NC2c2ccccc2)cc1` (centres undefined) here?
Its Activity is “Non-Toxic”.

With `COc1ccc(COC(=O)C2=C(c3cccs3)NC(=O)NC2c2ccccc2)cc1` (centres undefined) as the molecule, how does the Activity [2] read?
The Activity was “Non-Toxic”.

With `CC1=C(C(=O)OCc2ccccc2)C(c2ccccc2)NC(=O)N1` (centres undefined) as the molecule, how does the Activity [2] read?
Its Activity is “Non-Toxic”.

Which Activity [2] does the source give for `COc1cccc(COC(=O)C2=C(C)NC(=O)NC2c2ccco2)c1` (centres undefined) here?
Its Activity is “Non-Toxic”.

With `COc1ccc(COC(=O)C2=C(c3ccccc3)NC(=O)NC2c2ccccc2)cc1` (centres undefined) as the molecule, how does the Activity [2] read?
Its Activity is “Non-Toxic”.

Which Activity [2] does the source give for `COc1cccc(COC(=O)C2=C(C)N(C)C(=O)N(C)C2c2ccco2)c1` (centres undefined) here?
Its Activity is “Non-Toxic”.

For `COc1ccc(COC(=O)C2=C(C)N(C)C(=O)NC2c2ccccc2)cc1` (centres undefined), which Activity [2] is on record?
Its Activity is “Non-Toxic”.

For `CCC1=C(C(=O)OCc2ccc(OC)cc2)C(c2ccccc2)NC(=O)N1` (centres undefined), which Activity [2] is on record?
The Activity was “Non-Toxic”.

With `COc1ccc(COC(=O)C2=C(C3CCCCC3)NC(=O)NC2c2ccccc2)cc1` (centres undefined) as the molecule, how does the Activity [2] read?
Its Activity is “Non-Toxic”.

Which Activity [2] does the source give for `COc1ccc(COC(=O)C2=C(C)NC(=O)NC2c2cccc(Br)c2)cc1` (centres undefined) here?
Its Activity is “Non-Toxic”.

Which Activity [2] does the source give for `COc1cccc(COC(=O)C2=C(C)N(C)C(=O)NC2c2ccco2)c1` (centres undefined) here?
The Activity was “Non-Toxic”.

Which Activity [2] does the source give for `CC1=C(C(=O)OCc2ccc3c(c2)OCO3)C(c2ccco2)NC(=O)N1` (centres undefined) here?
Its Activity is “Non-Toxic”.

With `COc1ccc(COC(=O)C2=C(C)NC(=O)NC2c2ccco2)cc1` (centres undefined) as the molecule, how does the Activity [2] read?
The Activity was “Non-Toxic”.

With `COc1ccc(COC(=O)C2=C(C)NC(=O)NC2c2ccc(F)cc2)cc1` (centres undefined) as the molecule, how does the Activity [2] read?
The Activity was “Non-Toxic”.

Which Activity [2] does the source give for `COc1ccc(COC(=O)C2=C(C)NC(=O)NC2c2cccs2)cc1` (centres undefined) here?
Its Activity is “Non-Toxic”.
